Here are results for three molecules from patent US4933157A, “Radioiodinated arylaliphatic ether analogues of cholesterol” (The University of Michigan, priority 1988, dated 1990).

SMILES strings stand for the structures. Read-outs that look alike come from different tables or passages of the source.

For data set [1] the following is noted: in vivo; cited from earlier work.
Data set [2] is described as follows: Tissue distribution of radioactivity following IV administration to male guinea pigs. It is filed as in vivo, male Hartley guinea pigs. As to the method: (§1) The labelled compounds ([…] ^125 I) were administered intravenously in a 2% Tween-20-saline vehicle. At various times following administration, the animals were sacrificed, and selected tissue samples were removed. The tissue samples were weighed and placed in cellulose acetate capsules. The radioactivity was then counted (85%) efficiency using a well scintillation counter (Searle 1185). The results from selected tissue samples are shown below in Tables 1 and 2. The tissue distribution of the selected cholesteryl ether is expressed as percent Kg dose per g of tissue after 30 minutes (Table 1) and after 24 hours (Table 2).

Data set [3] in a line: Polyacrylamide gel electrophoresis of rat plasma (plasma level studies). It is filed as in vivo, female Sprague Dawley rats.
How the values of data set [4] were obtained: Female Sprague Dawley rats were injected with a radio-iodinated arylaliphatic cholesteryl ether analogue (^125 I) solubilized in a suitable transport agent, such as 2% Tween 20-saline. After a predetermined time period, blood samples were drawn from the rats. The plasma was separated from the red blood cells and mixed with a suitable dye (Sudan Black or Sudan Blue). The plasma samples were then subjected to polyacrylamide gel electrophoresis to separate the various fractions. The radioactivity of the various fractions were measured with a gamma counter. […] The data is expressed as a percent of total radioactivity in the gel.
Guinea pigs have a greater concentration of low density lipoproteins in their blood plasma than rats.

A short description of data set [5]: Tissue distribution of radioactivity following IV administration of radioiodinated cholesteryl ethers to female rats. It is filed as in vivo, female Sprague Dawley rats. As to the method: as §1

Turning to `CC(C)CCC[C@@H](C)[C@H]1CC[C@H]2[C@@H]3C[C@@H](C[131I])C4=C(CC[C@H](O)C4)[C@H]3CC[C@]12C` [NP-59, 6-b-iodomethyl-19-norcholest-5[10]en-3b-ol], in data set [1], the “metabolic loss of iodine and accumulation in the thyroid” value is “subject to metabolic loss of iodine and resulting accumulation of this iodine in the thyroid”; the “uptake into the adrenal glands” value was “extremely slow”.
Turning to `CC(C)CCC[C@@H](C)[C@H]1CC[C@H]2[C@@H]3CC=C4C[C@@H](OCc5cccc([125I])c5)CC[C@]4(C)[C@H]3CC[C@]12C` [m-Iodobenzyl, m-iodobenzyl cholesteryl ether], in data set [2] (30 min), the “Tissue distribution of radioactivity: Adrenal” value (“Tissue distribution … Adrenal” for short) was found to be 0.360 ± 0.019 % KG DOSE/G OF TISSUE, the “Tissue distribution of radioactivity: Blood” value (shortened to “Tissue distribution … Blood”) is reported as 0.799 ± 0.041 % KG DOSE/G OF TISSUE, the “Tissue distribution of radioactivity: Liver” value (from here on “Tissue distribution … Liver”) came out at 0.643 ± 0.044 % KG DOSE/G OF TISSUE and the “Tissue distribution of radioactivity: Testes” value was determined as 0.025 ± 0.002 % KG DOSE/G OF TISSUE. Also, the “Tissue distribution of radioactivity: Thyroid” value (“Tissue distribution … Thyroid” for short) in data set [2] (30 min) was found to be 0.039 ± 0.002 % KG DOSE/G OF TISSUE. Besides, in data set [2] (24 hr), the “Tissue distribution … Adrenal” value is given as 7.861 ± 0.656 % KG DOSE/G OF TISSUE, the “Tissue distribution … Blood” value stood at 0.158 ± 0.020 % KG DOSE/G OF TISSUE, the “Tissue distribution … Liver” value was 2.023 ± 0.147 % KG DOSE/G OF TISSUE and the “Tissue distribution of radioactivity: Testes” value turned out to be 0.043 ± 0.010 % KG DOSE/G OF TISSUE. In data set [2] (24 hr), the “Tissue distribution … Thyroid” value is given as 1.546 ± 0.279 % KG DOSE/G OF TISSUE. In data set [3] (30 minutes), the “Gel fraction: Albumin” value was 0.3 ± 0.1 % OF TOTAL RADIOACTIVITY IN GEL, the “Gel fraction: Below Alb” value is listed as 0.0 ± 0.0 % OF TOTAL RADIOACTIVITY IN GEL, the “Gel fraction: HDL Band (high density lipoproteins)” value is reported as 53.3 ± 2.2 % OF TOTAL RADIOACTIVITY IN GEL and the “Gel fraction: LDL Band (low density lipoproteins)” value is given as 41.0 ± 3.5 % OF TOTAL RADIOACTIVITY IN GEL. Further, the “Gel fraction: Stacking Gel” value in data set [3] (30 minutes) is recorded as 5.4 ± 2.5 % OF TOTAL RADIOACTIVITY IN GEL. Further, in data set [3] (24 hours), the “Gel fraction: Albumin” value is on record as 1.1 ± 0.2 % OF TOTAL RADIOACTIVITY IN GEL, the “Gel fraction: Below Alb” value was 0.5 ± 0.1 % OF TOTAL RADIOACTIVITY IN GEL, the “Gel fraction: HDL Band” value is listed as 45.7 ± 3.2 % OF TOTAL RADIOACTIVITY IN GEL and the “Gel fraction: Stacking Gel” value is 21.6 ± 5.8 % OF TOTAL RADIOACTIVITY IN GEL. Further, the “Gel fraction: LDL Band” value in data set [4] (guinea pig plasma, IV, 24 hr) is 72.2 ± 2.0 % OF TOTAL RADIOACTIVITY IN GEL. Besides, in data set [4] (guinea pig, in vivo), the “dose associated with the low density lipoproteins” value is “greater than 70 % of the dose”. Besides, in data set [5] (30 minutes), the “Tissue distribution … Adrenal” value worked out at 1.347 ± 0.289 % KG DOSE/G OF TISSUE, the “Tissue distribution … Blood” value stood at 0.985 ± 0.127 % KG DOSE/G OF TISSUE, the “Tissue distribution … Liver” value amounted to 1.414 ± 0.176 % KG DOSE/G OF TISSUE and the “Tissue distribution of radioactivity: Ovary” value (shortened to “Tissue distribution … Ovary”) is 0.635 ± 0.036 % KG DOSE/G OF TISSUE. For the same molecule, the “Tissue distribution … Thyroid” value in data set [5] (30 minutes) stood at 0.133 ± 0.018 % KG DOSE/G OF TISSUE. Further, in data set [5] (24 hours), the “Tissue distribution … Adrenal” value is recorded as 3.755 ± 0.362 % KG DOSE/G OF TISSUE, the “Tissue distribution … Blood” value stood at 0.070 ± 0.006 % KG DOSE/G OF TISSUE, the “Tissue distribution … Liver” value was determined as 2.607 ± 0.072 % KG DOSE/G OF TISSUE and the “Tissue distribution … Ovary” value came out at 1.924 ± 0.301 % KG DOSE/G OF TISSUE. For the same molecule, the “Tissue distribution … Thyroid” value in data set [5] (24 hours) is recorded as 1.307 ± 0.150 % KG DOSE/G OF TISSUE.
On to `CC(C)CCC[C@@H](C)[C@H]1CC[C@H]2[C@@H]3CC=C4C[C@@H](OCCCCCCCCCCCCc5cccc([125I])c5)CC[C@]4(C)[C@H]3CC[C@]12C` [m-Iodophenyldodecyl, 12-(m-iodophenyl)dodecyl cholesteryl ether], for which, in data set [3] (30 minutes), the “Gel fraction: Albumin” value is on record as 1.1 ± 0.2 % OF TOTAL RADIOACTIVITY IN GEL, the “Gel fraction: Below Alb” value is given as 0.5 ± 0.1 % OF TOTAL RADIOACTIVITY IN GEL, the “Gel fraction: HDL Band (high density lipoproteins)” value was 45.7 ± 3.2 % OF TOTAL RADIOACTIVITY IN GEL and the “Gel fraction: LDL Band (low density lipoproteins)” value is 31.2 ± 4.0 % OF TOTAL RADIOACTIVITY IN GEL. Besides, the “Gel fraction: Stacking Gel” value in data set [3] (30 minutes) is 21.6 ± 5.8 % OF TOTAL RADIOACTIVITY IN GEL. For the same molecule, in data set [3] (24 hours), the “Gel fraction: Albumin” value was 3.4 ± 0.7 % OF TOTAL RADIOACTIVITY IN GEL, the “Gel fraction: Below Alb” value is given as 4.9 ± 1.3 % OF TOTAL RADIOACTIVITY IN GEL, the “Gel fraction: HDL Band” value was 66.2 ± 2.6 % OF TOTAL RADIOACTIVITY IN GEL and the “Gel fraction: LDL Band” value was 14.0 ± 1.0 % OF TOTAL RADIOACTIVITY IN GEL. Also, the “Gel fraction: Stacking Gel” value in data set [3] (24 hours) was 11.6 ± 1.3 % OF TOTAL RADIOACTIVITY IN GEL. Further, in data set [5] (30 minutes), the “Tissue distribution … Adrenal” value came to 1.307 ± 0.177 % KG DOSE/G OF TISSUE, the “Tissue distribution … Blood” value was determined as 1.250 ± 0.067 % KG DOSE/G OF TISSUE, the “Tissue distribution … Liver” value came to 0.829 ± 0.121 % KG DOSE/G OF TISSUE and the “Tissue distribution … Ovary” value stood at 0.936 ± 0.136 % KG DOSE/G OF TISSUE. For the same molecule, the “Tissue distribution … Thyroid” value in data set [5] (30 minutes) was determined as 0.486 ± 0.085 % KG DOSE/G OF TISSUE. In data set [5] (24 hours), the “Tissue distribution … Adrenal” value was 3.063 ± 0.305 % KG DOSE/G OF TISSUE, the “Tissue distribution … Blood” value is recorded as 0.085 ± 0.002 % KG DOSE/G OF TISSUE, the “Tissue distribution … Liver” value is recorded as 1.779 ± 0.247 % KG DOSE/G OF TISSUE and the “Tissue distribution … Ovary” value is 4.528 ± 0.816 % KG DOSE/G OF TISSUE. Also, the “Tissue distribution … Thyroid” value in data set [5] (24 hours) was determined as 6.047 ± 0.760 % KG DOSE/G OF TISSUE.
